Test results taken from patent US20250270215A1, “IMIDAZOLE DERIVATIVES AS ALK5 INHIBITORS” (CHIESI FARMACEUTICI S.P.A., priority 2022, published 2025).

These compounds were tested against human ALK5 (Homo sapiens (Human), UniProt P36897) (assay: ADP-GLO Kinases assay (ALK5 enzymatic activity)). Conditions: purified recombinant human ALK5 2.6 nM, TGFβ1 peptide substrate, 25° C., 150 min incubation, ADP-Glo detection.
Assay type: biochemical
Method: The enzymatic activity of compounds of the present invention was monitored measuring the formation of ADP using the ADP-GLO Kinases assay. Following the incubation of the purified enzyme, a substrate and ATP, the produced ADP was converted into ATP, which in turn was converted into light by Ultra-Glo Luciferase. The luminescent signal positively correlated with ADP amount and kinase activity. Briefly, the kinase reaction was performed by incubating 2.6 nM of the purified, commercially available human ALK5 (recombinant TGF β1 N-term GST-tagged, 80-end), a final concentration of TGFβ1 peptide 94.5 μM (Promega, T36-58) and ultra-pure ATP (Promega V915B). The ATP concentration was set at the Km value (concentration of substrate which permits the enzyme to achieve half maximal velocity (Vmax)) of ALK5 (5 μM). All reactions/incubations were performed at 25° C. Compound and ALK5 kinase were mixed and incubated for 15 mins. Reactions were initiated by addition of ATP at a final concentration in the assay of 0.83 μM. After an incubation of 150 min, the reaction was stopped, and ADP production detected with ADP-Glo kit according to manufacturer's indications. The assay was performed in 384-well format and was validated using a selection of reference compounds that was tested in 11 point concentration-response curve.

Sequence of human ALK5 (P36897 80-503 limits assumed): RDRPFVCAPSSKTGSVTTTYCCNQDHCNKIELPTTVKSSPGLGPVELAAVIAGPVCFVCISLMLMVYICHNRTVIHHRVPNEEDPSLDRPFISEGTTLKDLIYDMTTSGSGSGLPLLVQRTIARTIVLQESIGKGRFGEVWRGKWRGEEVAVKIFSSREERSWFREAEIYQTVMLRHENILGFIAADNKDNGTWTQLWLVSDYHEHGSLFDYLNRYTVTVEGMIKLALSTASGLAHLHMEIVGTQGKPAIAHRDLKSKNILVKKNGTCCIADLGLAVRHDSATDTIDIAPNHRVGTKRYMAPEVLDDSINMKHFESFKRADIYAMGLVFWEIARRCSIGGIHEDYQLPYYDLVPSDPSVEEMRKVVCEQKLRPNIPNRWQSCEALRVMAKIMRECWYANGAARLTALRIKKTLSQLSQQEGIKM

| SMILES | IC50 [nM] |
| --- | --- |
| Cc1cccc(-c2nc3n(c2-c2ccnc4[nH]ccc24)CCN3)n1 [Example 35, 4-(6-(6-Methylpyridin-2-yl)-2,3-dihydro-1H-imidazo[1,2-a]imidazol-5-yl)-1H-pyrrolo[2,3-b]pyridine] | 1 to 5 |
| Cc1cccc(-c2nc3n(c2-c2ccc4nnsc4c2)CCN3)n1 [Example 31, 6-(6-(6-Methylpyridin-2-yl)-2,3-dihydro-1H-imidazo[1,2-a]imidazol-5-yl)benzo[d][1,2,3] thiadiazole] | < 1 |
| CCN1CCn2c1nc(-c1cccc(C)n1)c2-c1cc2cnccc2s1 [Example 42, 2-(1-Ethyl-5-{thieno[3,2-c]pyridin-2-yl}-1H,2H,3H-imidazo[1,2-a] [1,3]diazol-6-yl)-6-methylpyridine] | 1 to 5 |
| Cn1ccc(-c2nc3n(c2-c2cc4cnccc4s2)CCN3)n1 [Example 9, 2-(6-(1-Methyl-1H-pyrazol-3-yl)-2,3-dihydro-1H-imidazo[1,2-a]imidazol-5-yl)thieno[3,2-c]pyridine] | 1 to 5 |
| Cc1cccc(-c2nc3n(c2-c2cccc4ncsc24)CCN3)n1 [Example 15] | 5 to 10 |
| Cc1cccc(-c2nc3n(c2-c2ccc(F)c(N)c2)CCN3)n1 [Example 43, 2-Fluoro-5-(6-(6-methylpyridin-2-yl)-2,3-dihydro-1H-imidazo[1,2-a]imidazol-5-yl) aniline] | 1 to 5 |
| Cc1cccc(-c2nc3n(c2-c2cc4cnccc4s2)CC(C(=O)N(C)C)N3)n1 (stereo not shown) [Example 29, N,N-Dimethyl-6-(6-methylpyridin-2-yl)-5-{thieno[3,2-c]pyridin-2-yl}-1H,2H,3H-imidazo[1,2-a][1,3]diazole-2-carboxamide] | 1 to 5 |
| CCOC(=O)CC1Cn2c(nc(-c3cccc(C)n3)c2-c2cc3cnccc3s2)N1 (stereo not shown) [Example 20, Ethyl 2-[6-(6-methylpyridin-2-yl)-5-{thieno[3,2-c]pyridin-2-yl}-1H,2H,3H-imidazo[1,2-a][1,3]diazol-2-yl] acetate] | 1 to 5 |
| Cc1csc(-c2nc3n(c2-c2cc4cnccc4s2)CCN3)n1 [Example 7, 2-(6-(4-Methylthiazol-2-yl)-2,3-dihydro-1H-imidazo[1,2-a]imidazol-5-yl)thieno[3,2-c]pyridine] | < 1 |
| CCN1CCn2c1nc(-c1cccc(C)n1)c2-c1ccc2ncsc2c1 [Example 33, 6-[1-Ethyl-6-(6-methylpyridin-2-yl)-1H,2H,3H-imidazo[1,2-a][1,3]diazol-5-yl]-1,3-benzothiazole] | < 1 |
| CCN1CCn2c1nc(-c1cccc(C)n1)c2-c1ccc2ncnn2c1 [Example 22, 6-(1-Ethyl-6-(6-methylpyridin-2-yl)-2,3-dihydro-1H-imidazo[1,2-a]imidazol-5-yl)-[1,2,4]triazolo[1,5-a]pyridine] | < 1 |
| Cc1cccc(-c2nc3n(c2-c2cc4cnccc4s2)CC(CC(=O)O)N3)n1 (stereo not shown) [Example 21, 2-[6-(6-Methylpyridin-2-yl)-5-{thieno[3,2-c]pyridin-2-yl}-1H,2H,3H-imidazo[1,2-a][1,3]diazol-2-yl]acetic acid] | 1 to 5 |
| Cc1cccc(-c2nc3n(c2-c2ccnc(N)c2)CCN3)n1 [Example 56, 4-[6-(6-Methylpyridin-2-yl)-1H,2H,3H-imidazo[1,2-a][1,3]diazol-5-yl]pyridin-2-amine] | 5 to 10 |
| CCOC(=O)C1Cn2c(nc(-c3cccc(C)n3)c2-c2ccc3ncnn3c2)N1 (stereo not shown) [Example 26, Ethyl 6-(6-methylpyridin-2-yl)-5-{[1,2,4]triazolo[1,5-a]pyridin-6-yl}-1H,2H,3H-imidazo[1,2-a][1,3]diazole-2-carboxylate] | 1 to 5 |
| Cc1cccc(-c2nc3n(c2-c2ccc4snnc4c2)CCN3)n1 [Example 30, 5-(6-(6-Methylpyridin-2-yl)-2,3-dihydro-1H-imidazo[1,2-a]imidazol-5-yl)benzo[d][1,2,3] thiadiazole] | 1 to 5 |
| Cc1cccc(-c2nc3n(c2-c2ccc(O)cc2)CCN3)n1 [Example 55, 4-[6-(6-Methylpyridin-2-yl)-1H,2H,3H-imidazo[1,2-a][1,3]diazol-5-yl]phenol] | 1 to 5 |
| Cc1cccc(-c2nc3n(c2-c2ccc4nc(N)sc4c2)CCN3)n1 [Example 48, 6-(6-(6-Methylpyridin-2-yl)-2,3-dihydro-1H-imidazo[1,2-a]imidazol-5-yl)benzo[d] thiazol-2-amine] | 1 to 5 |
| Cn1ccc(-c2nc3n(c2-c2ccc4ncnn4c2)CCN3)n1 [Example 8, 6-(6-(1-Methyl-1H-pyrazol-3-yl)-2,3-dihydro-1H-imidazo[1,2-a]imidazol-5-yl)-[1,2,4]triazolo[1,5-a]pyridine] | 5 to 10 |
| COc1cccc(-c2nc3n(c2-c2ccc4ncsc4c2)CCN3)n1 [Example 57, 6-[6-(6-Methoxypyridin-2-yl)-1H,2H,3H-imidazo[1,2-a][1,3]diazol-5-yl]-1,3-benzothiazole] | < 1 |
